The text below walks through data of ChEMBL document CHEMBL1142959, “Semisynthetic approaches to laspartomycin analogues” (2007).

Converted amounts (≈) assume the structure as drawn. Positions of bridges follow the written chain, without caps; N, C: chain ends. Non-standard residues stand in square brackets, D forms with d. Residues, ends and D or L forms follow the SMILES beside them. *: point of attachment. Lauroyl = CCCCCCCCCCCC(=O)*; Pip = O=C(O)[C@@H]1CCCCN1; Dap = NC[C@H](N)C(=O)O

The first experiment has as its system Staphylococcus aureus. In words: Antimicrobial activity against methicillin-sensitive Staphylococcus aureus Smith ATCC 19636 by tube dilution method. It counts as functional.
Settings: not given
One may read the MIC as the lowest concentration found to suppress growth. `CCCCCCCCCCCCCCC(=O)N[C@@H](Cc1c[nH]c2ccccc12)C(=O)N[C@@H](CC(=O)O)C(=O)N[C@H]1CNC(=O)[C@@H]2CCCN2C(=O)[C@H]([C@H](C)CC)NC(=O)[C@H]([C@@H](C)O)NC(=O)CNC(=O)[C@H](CC(=O)O)NC(=O)CNC(=O)[C@H](CC(=O)O)NC(=O)CNC(=O)[C@@H]2CCCCN2C1=O`: the MIC turned out to be 16 µg/mL (≈ 11.1 µM). On the same count and under the same terms, as for `CCCCCCCCCCCCCCC(=O)N[C@@H](CC(=O)O)C(=O)N[C@H]1CNC(=O)[C@@H]2CCCN2C(=O)[C@H]([C@H](C)CC)NC(=O)[C@H]([C@@H](C)O)NC(=O)CNC(=O)[C@H](CC(=O)O)NC(=O)CNC(=O)[C@H](CC(=O)O)NC(=O)CNC(=O)[C@@H]2CCCCN2C1=O`, the figure is >128 µg/mL.

Staying with this experiment, now noted: Staphylococcus aureus, Smith; read-out: MIC.
For `CCCCCCCCCCCCS(=O)(=O)N[C@@H](CC(N)=O)C(=O)N[C@H]1CNC(=O)[C@@H]2CCCN2C(=O)[C@H]([C@H](C)CC)NC(=O)[C@H]([C@@H](C)O)NC(=O)CNC(=O)[C@H](CC(=O)O)NC(=O)CNC(=O)[C@H](CC(=O)O)NC(=O)CNC(=O)[C@@H]2CCCCN2C1=O`, the MIC was 16 µg/mL (≈ 12.7 µM). With `CCCCCCCCCCCCCCC(=O)N[C@H](Cc1ccccc1)C(=O)N[C@@H](CC(=O)O)C(=O)N[C@H]1CNC(=O)[C@@H]2CCCN2C(=O)[C@H]([C@H](C)CC)NC(=O)[C@H]([C@@H](C)O)NC(=O)CNC(=O)[C@H](CC(=O)O)NC(=O)CNC(=O)C(CC(=O)O)NC(=O)CNC(=O)[C@@H]2CCCCN2C1=O` (single isomer, unassigned), the MIC is 4 µg/mL (≈ 2.86 µM). Consider `CCCCCCCCCCCCc1ccc(C(=O)N[C@@H](CC(=O)O)C(=O)N[C@H]2CNC(=O)[C@@H]3CCCN3C(=O)[C@H]([C@H](C)CC)NC(=O)[C@H]([C@@H](C)O)NC(=O)CNC(=O)[C@H](CC(=O)O)NC(=O)CNC(=O)C(CC(=O)O)NC(=O)CNC(=O)[C@@H]3CCCCN3C2=O)cc1` (single isomer, unassigned), for which the minimal inhibitory concentration (MIC) was determined as 2 µg/mL (≈ 1.54 µM).

Turning to `CCCCCCCCCCCCCCCCS(=O)(=O)N[C@@H](Cc1c[nH]c2ccccc12)C(=O)N[C@H]1CNC(=O)[C@@H]2CCCN2C(=O)[C@H]([C@H](C)CC)NC(=O)[C@H]([C@@H](C)O)NC(=O)CNC(=O)[C@H](CC(=O)O)NC(=O)CNC(=O)[C@H](CC(=O)O)NC(=O)CNC(=O)[C@@H]2CCCCN2C1=O`, the MIC was > 64 µg/mL. On the same count and under the same terms, as for `CC[C@@H](C)[C@@H]1NC(=O)[C@H]([C@@H](C)O)NC(=O)CNC(=O)[C@H](CC(=O)O)NC(=O)CNC(=O)C(CC(=O)O)NC(=O)CNC(=O)[C@@H]2CCCCN2C(=O)[C@@H](NC(=O)[C@H](CC(=O)O)NC(=O)CCCCCCCCCCOc2ccccc2)CNC(=O)[C@@H]2CCCN2C1=O` (single isomer, unassigned), the figure is > 64 µg/mL.

With `CCCCCCCCCCCCCCCCNC(=O)N[C@@H](CC(N)=O)C(=O)N[C@H]1CNC(=O)[C@@H]2CCCN2C(=O)[C@H]([C@H](C)CC)NC(=O)[C@H]([C@@H](C)O)NC(=O)CNC(=O)[C@H](CC(=O)O)NC(=O)CNC(=O)[C@H](CC(=O)O)NC(=O)CNC(=O)[C@@H]2CCCCN2C1=O`, the MIC amounted to 2 µg/mL (≈ 1.55 µM).

`CCCCCCCCCCCCCCC(=O)NCC(=O)N[C@@H](CC(=O)O)C(=O)N[C@H]1CNC(=O)[C@@H]2CCCN2C(=O)[C@H]([C@H](C)CC)NC(=O)[C@H]([C@@H](C)O)NC(=O)CNC(=O)[C@H](CC(=O)O)NC(=O)CNC(=O)C(CC(=O)O)NC(=O)CNC(=O)[C@@H]2CCCCN2C1=O` (single isomer, unassigned): the MIC is > 64 µg/mL.

As for `CCCCCCCCCCCCCCC(=O)N[C@@H](Cc1c[nH]c2ccccc12)C(=O)N[C@@H](CC(=O)O)C(=O)N[C@H]1CNC(=O)[C@@H]2CCCN2C(=O)[C@H]([C@H](C)CC)NC(=O)[C@H]([C@@H](C)O)NC(=O)CNC(=O)[C@H](CC(=O)O)NC(=O)CNC(=O)C(CC(=O)O)NC(=O)CNC(=O)[C@@H]2CCCCN2C1=O` (single isomer, unassigned), the MIC was determined as 8 µg/mL (≈ 5.57 µM). Take `CCCCCCCCCCCCCCC(=O)N[C@H]1CNC(=O)[C@@H]2CCCN2C(=O)[C@H]([C@H](C)CC)NC(=O)[C@H]([C@@H](C)O)NC(=O)CNC(=O)[C@H](CC(=O)O)NC(=O)CNC(=O)C(CC(=O)O)NC(=O)CNC(=O)[C@@H]2CCCCN2C1=O` (single isomer, unassigned): the MIC is > 64 µg/mL. For `CCCCCCCCCCCCCCCCS(=O)(=O)N[C@@H](Cc1c[nH]c2ccccc12)C(=O)N[C@@H](CC(=O)O)C(=O)N[C@H]1CNC(=O)[C@@H]2CCCN2C(=O)[C@H]([C@H](C)CC)NC(=O)[C@H]([C@@H](C)O)NC(=O)CNC(=O)[C@H](CC(=O)O)NC(=O)CNC(=O)[C@H](CC(=O)O)NC(=O)CNC(=O)[C@@H]2CCCCN2C1=O`, the MIC came out at 4 µg/mL (≈ 2.67 µM). Still for that read-out and setting: as for `CCCCCCCCCCCCCCC(=O)N[C@@H](Cc1c[nH]c2ccccc12)C(=O)N[C@H](CC(=O)O)C(=O)N[C@H]1CNC(=O)[C@@H]2CCCN2C(=O)[C@H]([C@H](C)CC)NC(=O)[C@H]([C@@H](C)O)NC(=O)CNC(=O)[C@H](CC(=O)O)NC(=O)CNC(=O)C(CC(=O)O)NC(=O)CNC(=O)[C@@H]2CCCCN2C1=O` (single isomer, unassigned), the figure is > 64 µg/mL; as for `CCCCCCCCCCCC(=O)N[C@@H](Cc1c[nH]c2ccccc12)C(=O)N[C@@H](CC(N)=O)C(=O)N[C@H]1CNC(=O)[C@@H]2CCCN2C(=O)[C@H]([C@@H](C)CC)NC(=O)[C@H]([C@@H](C)O)NC(=O)CNC(=O)[C@H](CC(=O)O)NC(=O)CNC(=O)[C@H](CC(=O)O)NC(=O)CNC(=O)[C@@H]2CCCCN2C1=O` (Lauroyl-WN[Dap][Pip]GDGDGTIP; lactam 3-C), 8 µg/mL (≈ 5.74 µM); as for `CCCCCCCCCCCCOC(=O)N[C@@H](CC(N)=O)C(=O)N[C@H]1CNC(=O)[C@@H]2CCCN2C(=O)[C@H]([C@H](C)CC)NC(=O)[C@H]([C@@H](C)O)NC(=O)CNC(=O)[C@H](CC(=O)O)NC(=O)CNC(=O)[C@H](CC(=O)O)NC(=O)CNC(=O)[C@@H]2CCCCN2C1=O`, 8 µg/mL (≈ 6.47 µM). In the case of `CCCCCCCCCCCCCCC(=O)N[C@@H](CCC(=O)O)C(=O)N[C@H]1CNC(=O)[C@@H]2CCCN2C(=O)[C@H]([C@H](C)CC)NC(=O)[C@H]([C@@H](C)O)NC(=O)CNC(=O)[C@H](CC(=O)O)NC(=O)CNC(=O)C(CC(=O)O)NC(=O)CNC(=O)[C@@H]2CCCCN2C1=O` (single isomer, unassigned), the MIC was 64 µg/mL (≈ 50.7 µM). The same measure, in the same setting: as for `CCCCCCCCCCc1ccc(C(=O)N[C@@H](CC(=O)O)C(=O)N[C@H]2CNC(=O)[C@@H]3CCCN3C(=O)[C@H]([C@H](C)CC)NC(=O)[C@H]([C@@H](C)O)NC(=O)CNC(=O)[C@H](CC(=O)O)NC(=O)CNC(=O)C(CC(=O)O)NC(=O)CNC(=O)[C@@H]3CCCCN3C2=O)cc1` (single isomer, unassigned), the figure is 1 µg/mL (≈ 0.788 µM); as for `CCCCCCCCCC(=O)N[C@@H](CC(=O)O)C(=O)N[C@H]1CNC(=O)[C@@H]2CCCN2C(=O)[C@H]([C@H](C)CC)NC(=O)[C@H]([C@@H](C)O)NC(=O)CNC(=O)[C@H](CC(=O)O)NC(=O)CNC(=O)C(CC(=O)O)NC(=O)CNC(=O)[C@@H]2CCCCN2C1=O` (single isomer, unassigned), > 64 µg/mL; as for `CC[C@@H](C)[C@@H]1NC(=O)[C@H]([C@@H](C)O)NC(=O)CNC(=O)[C@H](CC(=O)O)NC(=O)CNC(=O)[C@H](CC(=O)O)NC(=O)CNC(=O)[C@@H]2CCCCN2C(=O)[C@@H](NC(=O)[C@H](CC(=O)O)NC(=O)/C=C/CCCCCCCCCC(C)C)CNC(=O)[C@@H]2CCCN2C1=O` [LASPARTOMYCIN C], 2 µg/mL (≈ 1.6 µM).
